Literature values in patent publication US10137126B2, “Method of preparing very slightly soluble drug with solid dosage form” (YUNG SHIN PHARM. IND. CO., LTD., priority 2015, dated 2018).

| aqueous solubility | Compound |
| --- | --- |
| 1 g/1,000 ml | CCC(C)n1ncn(-c2ccc(N3CCN(c4ccc(OCC5COC(Cn6cncn6)(c6ccc(Cl)cc6Cl)O5)cc4)CC3)cc2)c1=O (stereo not drawn) [Itraconazole] |
| 2 g/1,000,000 ml | CN1CC(=O)N2[C@H](c3ccc4c(c3)OCO4)c3[nH]c4ccccc4c3C[C@@H]2C1=O [Tadalafil] |
| 1 g/10,000 ml | C[C@@H](c1ncncc1F)[C@](O)(Cn1cncn1)c1ccc(F)cc1F [Voriconazole] |
